The source of these data is patent publication US7510836B2, “Alpha arteether resistance domain” (priority 2003, dated 2009).

The structures appear in SMILES notation.

For data set [1], the system named is malaria. To be noted: cited from earlier work.
The conditions of data set [2]: cited from earlier work.
For data set [3] the following is noted: cited from earlier work. This is another data set of the same source.
The subject of data set [4] is E. coli DH5 α (gyrA−). Put plainly: Disc diffusion, zone of inhibition. It counts as cell-based, Escherichia coli. The following applies: 250 μg/disc, Luria agar. The procedure:
(§1) To ascertain the involvement of gyrA mutation, another E.coli strain NK 5819 which is also GyrA″ and nalidixic acid resistant was tested for arteether sensitivity. As expected, strain NK5819 was also sensitive only to a-isomer of arteether. […] The assays for arteether sensitivity was performed by the standard single disk diffusion method (Bauer et al, 1966). As a next step, we isolated gyrA mutants of E.coli strain CA 8000, which is otherwise Gyr+ and nalidixic acid sensitive. The gyrA mutants of CA8000 were isolated as nalidixic acid resistant colonies (20 ug/ml), after mutagenic treatment with NTG ([…]). The isolated CA8000 gyrA mutants were also sensitive only to a isomer of arteether. […] To define precisely the involvement of gyr genes only in the a-arteether sensitivity, we utilised two recombinant clones (pMK 90 and pMK47 containing functional gyr A and gyrB genes respectively) in trans-complementation assays. For this purpose, we mobilized the plasmid clones into the E.coli gyr mutant strains. The resulting transformants were now nalidixic acid sensitive and a-arteether resistant. This constituted the direct evidence supporting our observation that DNA gyrase enzyme alone is involved in conferring a-arteether sensitivity to E.coli strain. […] DNA gyrase enzyme is essential for the bacterial growth. This enzyme transiently breaks the DNA strands and introduces negative superhelical turns in an ATP-dependent process. The E.coli DNA gyrase enzyme is a tetramer with two subunits A and B. These two subunits are nalidixic acid and coumermycin sensitive respectively (U.S. Pat. No. 6,127,405 and a co-pending patent).
(§2) The strains of E coli mutants were grown on Luria agar medium and beta-arteether (250 μg/disc) was applied on disc. The clear zone around the disc killing the bacteria is called Zone of Inhibition (ZOI). This is the measure of sensitivity of the strain towards the compound […].
A general note: In agar diffusion tests the substance spreads into inoculated agar from a disc or well.

Data set [5] deals with E. coli ET8000 (gyrA−). Put plainly: Disc diffusion, zone of inhibition. Format: cell-based, Escherichia coli. To be noted: 250 μg/disc, Luria agar. How it is done:
as §1, §2

The subject of data set [6] is E. coli NK5819 (gyrA−). Put plainly: Disc diffusion, zone of inhibition. The following applies: 250 μg/disc, Luria agar. Format: cell-based, Escherichia coli. How it is done:
as §1, §2

The subject of data set [7] is E. coli mutant CA8001. The data set can be described thus: Disc diffusion, zone of inhibition. It counts as cell-based, Escherichia coli. The following applies: 250 μg/disc, Luria agar. How it is done: as §1
(§3) In order to develop an arteether resistant mutants from an arteether sensitive strains a reverse strategy was applied. Quinoline/fluoroquinolone (Q/FQs) resistant strains were developed spontaneously i.e. screening overnight log phase culture of the Quinolone/fluoroquinolone sensitive i.e. arteether resistant strain (E coli CA 8000) on the poison agar plate of the Q/FQs. The Q/FQ resistant mutants which appeared on the poison agar plates were first purified through single colony purification and then checked for their arteether sensitivity. These arteether sensitive mutants on the contrary when checked for their Q/Fqs resistance they show different level of Q/FQs resistance.
as §2

Data set [8] has as its system E. coli mutant CA8002. The data set can be described thus: Disc diffusion, zone of inhibition. To be noted: 250 μg/disc, Luria agar. It counts as cell-based, Escherichia coli. The procedure:
as §1, §3, §2

The test system of data set [9] is E. coli mutant CA8003. Put plainly: Disc diffusion, zone of inhibition. To be noted: 250 μg/disc, Luria agar. It counts as cell-based, Escherichia coli. How it is done:
as §1, §3, §2

Data set [10] deals with E. coli mutant CA8006. The data set can be described thus: Disc diffusion, zone of inhibition. It counts as cell-based, Escherichia coli. The following applies: 250 μg/disc, Luria agar. How it is done:
as §1, §3, §2

The subject of data set [11] is E. coli mutant CA8007. Put plainly: Disc diffusion, zone of inhibition. To be noted: 250 μg/disc, Luria agar. It counts as cell-based, Escherichia coli. The procedure:
as §1, §3, §2

Data set [12] has as its system E. coli mutant CA8009. Put plainly: Disc diffusion, zone of inhibition. The following applies: 250 μg/disc, Luria agar. Format: cell-based, Escherichia coli. The procedure:
as §1, §3, §2

Data set [13] relates to E. coli mutant CA8010. Put plainly: Disc diffusion, zone of inhibition. Format: cell-based, Escherichia coli. To be noted: 250 μg/disc, Luria agar. How it is done: as §1, §3, §2
The subject of data set [14] is E. coli mutant CA8012. The data set can be described thus: Disc diffusion, zone of inhibition. Format: cell-based, Escherichia coli. The following applies: 250 μg/disc, Luria agar. How it is done: as §1, §3, §2
Data set [15] deals with gyr mutant strains of E.coli. The data set can be described thus: Arteether sensitivity of gyr mutants. The following applies: gyr mutants DH5a, NK5819, MTCC 482, CA8000 gyrA mutants. Format: cell-based, Escherichia coli. How it is done:
as §1, with “This enzyme transiently breaks the DNA strands and introduces negative superhelical turns in an ATP-dependent process. The E.coli DNA gyrase enzyme is a tetramer with two subunits A and B. These two subunits are nalidixic acid and coumermycin sensitive respectively (U.S. Pat. No. 6,127,405 and a co-pending patent).” left out

Consider `C[C@@H]1CC[C@H]2[C@@H](C)C(=O)O[C@@H]3O[C@@]4(C)CC[C@@H]1[C@]32OO4` [Artemisinin, artemisinin], for which the Plasmodicidal property entry in data set [1] is given as “high plasmodicidal property”. In addition, the half-life result in data set [2] is on record as “short”. In addition, in data set [3] (aprotic solvents), the “Solubility in most aprotic solvents” value is “readily soluble”. In addition, in [3] (water and oil), the “Solubility in water and oil” value is listed as “poorly soluble”.

As for `CCO[C@H]1O[C@@H]2O[C@@]3(C)CC[C@H]4[C@H](C)CC[C@@H]([C@H]1C)[C@@]24OO3` [beta-arteether], the “Net ZOI in mm” value in data set [4] stood at 5 mm; in data set [5], 5 mm; in [6], 7 mm; in [7], 10 mm; in data set [8] it was 5 mm; in data set [9] it was 9 mm. For the same compound, the “Net ZOI in mm” value in [10] came to 11 mm; in data set [11], 8 mm; in data set [12], 14 mm; in data set [13], 10 mm; in data set [14], 8 mm. Besides, the “Sensitivity” value in [15] is on record as “none of the above described gyr mutants were sensitive”.
